{
  "source": "paper PMC9127750",
  "about": "“Structure-based design of CDC42 effector interaction inhibitors for the treatment of cancer” (Cell reports, 2022)",
  "test_system": "WM3248 melanoma cells, 486 antibodies",
  "assay": "Reverse phase protein arrays (RPPA)",
  "assay_type": "cell-based, Human",
  "from_the_text": "Pellets were snap frozen in liquid nitrogen and shipped to MD Anderson Cancer Center core RPPA facility for RPPA analysis (Table S5). Three biological replicates for each sample were generated.\nNomenclatures on the RPPA heatmaps: name_of_antibody.species_of_antibody.status_of_antibody. V - antibody validated; C - validation of antibody in progress; Q - antibody nonspecific; E – under evaluation; antibodies raised in M - mouse, G - goat, R - rabbit, or T - rat.",
  "key": {"[1]": {"conditions": "level 20 normalized to 0, single replicates"}},
  "note": "Values joined by “and” are separate entries in the source; they are usually repeats but may differ in a detail not shown here. Identical values can stand only once.",
  "data": [
    {"compound": "CN(C)c1cccc(Nc2cc(-c3ccccc3)nc(C3CCNCC3)n2)c1", "note": "[ARN22089, N1,N1-dimethyl-N3-(6-phenyl-2-(piperidin-4-yl)pyrimidin-4-yl)benzene-1,3-diamine]", "values": [
      {"measurement": "VHL.EPPK1.M.C Norm_20_1 to Norm_20_3", "setting": "[1]", "result": "0.500 and 1.345 and 0.800"},
      {"measurement": "VHL.R.C Norm_20_1 to Norm_20_3", "setting": "[1]", "result": "0.916 and 0.962 and 0.841"},
      {"measurement": "Vinculin.M.V Norm_20_1 to Norm_20_3", "setting": "[1]", "result": "0.883 and 0.898 and 1.015"},
      {"measurement": "WIPI1.R.C Norm_20_1 to Norm_20_3", "setting": "[1]", "result": "1.294 and 1.483 and 1.388"},
      {"measurement": "WIPI2.R.C Norm_20_1 to Norm_20_3", "setting": "[1]", "result": "1.222 and 0.891 and 1.265"},
      {"measurement": "WTAP.R.V Norm_20_1 to Norm_20_3", "setting": "[1]", "result": "1.313 and 1.590 and 0.930"},
      {"measurement": "Wee1.R.C Norm_20_1 to Norm_20_3", "setting": "[1]", "result": "0.789 and 0.790 and 1.159"},
      {"measurement": "Wee1_pS642.R.C Norm_20_1 to Norm_20_3", "setting": "[1]", "result": "0.904 and 0.831 and 1.081"},
      {"measurement": "XBP.1.G.C Norm_20_1 to Norm_20_3", "setting": "[1]", "result": "0.929 and 1.289"},
      {"measurement": "XIAP.R.C Norm_20_1 to Norm_20_3", "setting": "[1]", "result": "0.985 and 0.834 and 1.059"},
      {"measurement": "XPA.M.V Norm_20_1 to Norm_20_3", "setting": "[1]", "result": "0.800 and 0.980 and 0.934"},
      {"measurement": "XPF.R.C Norm_20_1 to Norm_20_3", "setting": "[1]", "result": "0.837 and 0.882"},
      {"measurement": "XRCC1.R.C Norm_20_1 to Norm_20_3", "setting": "[1]", "result": "0.881 and 1.133"},
      {"measurement": "YAP.R.C Norm_20_1 to Norm_20_3", "setting": "[1]", "result": "0.917 and 1.135 and 0.817"},
      {"measurement": "YAP_pS127.R.V Norm_20_1 to Norm_20_3", "setting": "[1]", "result": "1.228 and 0.736"},
      {"measurement": "YB1_pS102.R.V Norm_20_1 to Norm_20_3", "setting": "[1]", "result": 0.867},
      {"measurement": "YES1.R.V Norm_20_1 to Norm_20_3", "setting": "[1]", "result": "0.976 and 0.995"},
      {"measurement": "YTHDF2.R.V Norm_20_1 to Norm_20_3", "setting": "[1]", "result": "1.165 and 1.218 and 1.246"},
      {"measurement": "YTHDF3.R.C Norm_20_1 to Norm_20_3", "setting": "[1]", "result": "1.003 and 1.082 and 1.010"},
      {"measurement": "ZAP.70.R.V Norm_20_1 to Norm_20_3", "setting": "[1]", "result": "0.955 and 0.894 and 0.817"},
      {"measurement": "ZEB1.R.V Norm_20_1 to Norm_20_3", "setting": "[1]", "result": "0.925 and 1.022 and 0.936"},
      {"measurement": "HLA.DQA1.R.V Norm_20 Average", "setting": "level 20 vs 0", "result": 0.977},
      {"measurement": "HMHA1.R.V Norm_20 Average", "setting": "level 20 vs 0", "result": 1.016},
      {"measurement": "HNRNPK.R.V Norm_20 Average", "setting": "level 20 vs 0", "result": 0.991},
      {"measurement": "HSP27.M.C Norm_20 Average", "setting": "level 20 vs 0", "result": 0.811},
      {"measurement": "HSP27_pS82.R.V Norm_20 Average", "setting": "level 20 vs 0", "result": 0.961},
      {"measurement": "HSP60.R.V Norm_20 Average", "setting": "level 20 vs 0", "result": 0.996},
      {"measurement": "HSP70.R.C Norm_20 Average", "setting": "level 20 vs 0", "result": 1.202},
      {"measurement": "Hexokinase.I.R.C Norm_20 Average", "setting": "level 20 vs 0", "result": 1.201},
      {"measurement": "Hif.1αR.C Norm_20 Average", "setting": "level 20 vs 0", "result": 1.051},
      {"measurement": "Histone.H3.R.V Norm_20 Average", "setting": "level 20 vs 0", "result": 5.937},
      {"measurement": "Histone.H3_pS10.R.V Norm_20 Average", "setting": "level 20 vs 0", "result": 2.467},
      {"measurement": "IDO.R.C Norm_20 Average", "setting": "level 20 vs 0", "result": 0.964},
      {"measurement": "IGF1R_pY1135_Y1136.R.V Norm_20 Average", "setting": "level 20 vs 0", "result": 0.962},
      {"measurement": "IGFBP3.M.V Norm_20 Average", "setting": "level 20 vs 0", "result": 0.905},
      {"measurement": "IL.6.R.C Norm_20 Average", "setting": "level 20 vs 0", "result": 0.971},
      {"measurement": "IMP3.R.C Norm_20 Average", "setting": "level 20 vs 0", "result": 0.967},
      {"measurement": "INPP4b.R.C Norm_20 Average", "setting": "level 20 vs 0", "result": 0.976},
      {"measurement": "IRF.1.R.V Norm_20 Average", "setting": "level 20 vs 0", "result": 0.958},
      {"measurement": "IRF.3.R.V Norm_20 Average", "setting": "level 20 vs 0", "result": 0.882},
      {"measurement": "IRS1.R.V Norm_20 Average", "setting": "level 20 vs 0", "result": 1.050},
      {"measurement": "IRS2.R.C Norm_20 Average", "setting": "level 20 vs 0", "result": 1.223},
      {"measurement": "JAB1.M.C Norm_20 Average", "setting": "level 20 vs 0", "result": 0.970},
      {"measurement": "JNK2.R.V Norm_20 Average", "setting": "level 20 vs 0", "result": 1.099},
      {"measurement": "JNK_pT183_Y185.R.C Norm_20 Average", "setting": "level 20 vs 0", "result": 1.003},
      {"measurement": "Jagged1.R.V Norm_20 Average", "setting": "level 20 vs 0", "result": 1.028},
      {"measurement": "KAP1.R.V Norm_20 Average", "setting": "level 20 vs 0", "result": 1.259},
      {"measurement": "KEAP1.R.V Norm_20 Average", "setting": "level 20 vs 0", "result": 1.000},
      {"measurement": "LAD1.R.V Norm_20 Average", "setting": "level 20 vs 0", "result": 0.964},
      {"measurement": "LC3A.B.R.C Norm_20 Average", "setting": "level 20 vs 0", "result": 1.242},
      {"measurement": "LCN2.R.V Norm_20 Average", "setting": "level 20 vs 0", "result": 1.622},
      {"measurement": "LDHA.R.C Norm_20 Average", "setting": "level 20 vs 0", "result": 1.558},
      {"measurement": "LRP6_pS1490.R.V Norm_20 Average", "setting": "level 20 vs 0", "result": 1.024},
      {"measurement": "Lck.R.V Norm_20 Average", "setting": "level 20 vs 0", "result": 1.304},
      {"measurement": "Lyn.R.V Norm_20 Average", "setting": "level 20 vs 0", "result": 1.028},
      {"measurement": "MACC1.R.V Norm_20 Average", "setting": "level 20 vs 0", "result": 0.935},
      {"measurement": "MAPK_pT202_Y204.R.C Norm_20 Average", "setting": "level 20 vs 0", "result": 0.567},
      {"measurement": "MCT4.R.V Norm_20 Average", "setting": "level 20 vs 0", "result": 0.993},
      {"measurement": "MDM2_pS166.R.V Norm_20 Average", "setting": "level 20 vs 0", "result": 1.398},
      {"measurement": "MEK1.R.V Norm_20 Average", "setting": "level 20 vs 0", "result": 1.549},
      {"measurement": "MEK1_pS217_S221.R.V Norm_20 Average", "setting": "level 20 vs 0", "result": 0.977},
      {"measurement": "MEK2.R.V Norm_20 Average", "setting": "level 20 vs 0", "result": 1.030},
      {"measurement": "MERIT40.R.C Norm_20 Average", "setting": "level 20 vs 0", "result": 0.913},
      {"measurement": "MERIT40_pS29.R.V Norm_20 Average", "setting": "level 20 vs 0", "result": 1.026},
      {"measurement": "METTL3.R.V Norm_20 Average", "setting": "level 20 vs 0", "result": 1.246},
      {"measurement": "MIF.R.C Norm_20 Average", "setting": "level 20 vs 0", "result": 0.892},
      {"measurement": "MIG6.R.V Norm_20 Average", "setting": "level 20 vs 0", "result": 0.907},
      {"measurement": "MLH1.M.V Norm_20 Average", "setting": "level 20 vs 0", "result": 0.889},
      {"measurement": "MLKL.R.V Norm_20 Average", "setting": "level 20 vs 0", "result": 0.854},
      {"measurement": "MMP2.R.V Norm_20 Average", "setting": "level 20 vs 0", "result": 0.934},
      {"measurement": "MMP14.R.V Norm_20 Average", "setting": "level 20 vs 0", "result": 1.655},
      {"measurement": "MR1.M.C Norm_20 Average", "setting": "level 20 vs 0", "result": 0.987},
      {"measurement": "MRAP.R.C Norm_20 Average", "setting": "level 20 vs 0", "result": 1.110},
      {"measurement": "MSH2.R.C Norm_20 Average", "setting": "level 20 vs 0", "result": 0.939},
      {"measurement": "MSH6.R.C Norm_20 Average", "setting": "level 20 vs 0", "result": 1.329},
      {"measurement": "MSI2.R.C Norm_20 Average", "setting": "level 20 vs 0", "result": 1.187},
      {"measurement": "MTCO1.M.V Norm_20 Average", "setting": "level 20 vs 0", "result": 1.135},
      {"measurement": "MTSS1.M.C Norm_20 Average", "setting": "level 20 vs 0", "result": 0.937},
      {"measurement": "Mcl.1.R.V Norm_20 Average", "setting": "level 20 vs 0", "result": 0.754},
      {"measurement": "MelanA.R.C Norm_20 Average", "setting": "level 20 vs 0", "result": 1.025},
      {"measurement": "Melanoma.gp100.R.C Norm_20 Average", "setting": "level 20 vs 0", "result": 1.012}
    ]}
  ]
}
